Laboratory results taken from patent US7932262B2 (Novartis AG, priority 2006, dated 2011).

Columns and labels:
PC-3 cells = assay: Cell Proliferation Assay (Cell Titer Glo), PC-3 cell line; assay type: cell-based; settings: Homo sapiens, PC-3, 72 h, PC-3 cells, 3 days incubation; read-out: CP EC50 PC3
Outline: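 Cell Titer Glo luminescence, read after fresh medium replaced the dosing medium, gave viability of PC-3 cells plated at 1000 cells/well. Compounds, 1:3 serially diluted in DMSO at 500× and then in medium, were added after 3-5 h adhesion and incubated 3 days at 37° C.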

PDK1 kinase = target: T1, PDK1 kinase (Homo sapiens, UniProt O15530); assay: PDK1 Kinase Alpha Screen Assay; assay type: biochemical; settings: read-out: PDK1 IC50
T1 sequence (O15530 1-556): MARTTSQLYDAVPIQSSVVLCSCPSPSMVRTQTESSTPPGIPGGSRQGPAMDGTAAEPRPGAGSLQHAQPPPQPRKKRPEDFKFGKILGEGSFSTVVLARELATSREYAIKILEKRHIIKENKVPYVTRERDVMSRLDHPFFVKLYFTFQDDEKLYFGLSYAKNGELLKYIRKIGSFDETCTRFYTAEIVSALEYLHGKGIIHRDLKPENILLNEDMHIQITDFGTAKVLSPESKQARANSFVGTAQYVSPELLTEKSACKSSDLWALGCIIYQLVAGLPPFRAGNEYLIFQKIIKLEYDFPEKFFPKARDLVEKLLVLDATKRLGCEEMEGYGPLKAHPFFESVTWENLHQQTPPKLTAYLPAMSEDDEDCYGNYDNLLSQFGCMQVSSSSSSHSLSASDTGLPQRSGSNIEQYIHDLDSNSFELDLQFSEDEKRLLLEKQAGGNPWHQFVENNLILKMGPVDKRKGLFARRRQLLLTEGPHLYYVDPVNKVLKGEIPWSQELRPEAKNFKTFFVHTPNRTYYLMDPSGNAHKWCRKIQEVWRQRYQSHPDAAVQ
Outline: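 PDK1, 10 uM ATP, 50 nM biotin-PDK1-4 peptide; 50 mM Tris pH 7.5, 10 mM MgCl2, 0.1% BSA, 0.01% Tween-20, 2 mM DTT, 2.5% DMSO; 3-18 h. EDTA stop; AlphaScreen, phospho-Ser/Thr antibody, overnight RT.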

[1] = test system: pAkt308 (phosphorylation of Akt at T308) in PC-3 cells; assay: pAkt T308 ECL Assay in PC-3 cells; assay type: cell-based; settings: Homo sapiens, 6 h, six hours with compound, read-out: PAKT308 PC3 IC50
Experimental: VI. The pAkt^T308 ECL Assay Protocol
On Day 1, PC-3 cells were seeded at 15,000 cells/well in 100 μL/well ([…]) growth media into black-walled, clear bottom, poly-L-lysine coated plates. The cells were incubated overnight in a 37° C., 5% CO2 incubator.
On Day 2, a MSD ECL plate was blocked for two hours with 150 μL per well of 3% MSD blocker A.
Test compounds were diluted to 500× in DMSO and then were subjected to further serial dilution using a BioMek 2000 instrument. DMSO diluted compounds were then diluted into growth media and then added to the cell plates.
The cell plates incubated with compounds for six hours in a 37° C., 5% CO2 incubator after which the growth medium was removed and 55 μl of MSD lysis buffer was added to cell plates on ice. The plates were lysed on ice for five minutes followed by 15 minutes of vigorous shaking on a plate shaker at 4° C. The blocked MSD assay plates were washed twice with 1×MSD wash buffer followed by the addition of cell lysate as follows: 30 μl of cell lysate was added to the pAkt308 plates and 13 μl of lysate+12 μl lysis buffer was added to the tAkt plates. The plates were then sealed and shaken at 4° C. overnight.
On Day 3, the MSD plates were washed four times with 1×MSD wash buffer then, 25 μl/well of MSD SULFO-TAG antibodies diluted to 10 nM final concentration in 1% blocker. A buffer was added to the antibody diluent which was added to assay plates. The plates were then sealed and incubated at RT for 1.5 hour. The plates were then washed twice with 1×MSD wash buffer followed by the addition of 150 μl/well of 1.5×MSD read buffer. The plates were read immediately after the addition of read buffer using a Trilux instrument. […]

A2780 cells = assay: Cell Proliferation Assay (Cell Titer Glo), A2780; assay type: cell-based; settings: Homo sapiens, 72 h; A2780 cells, 3 days incubation; read-out: CPEC50 A2780
Outline: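 Following a 3-day compound exposure (37° C., 5% CO2) of A2780 or PC3MM cells plated at 1000 per well, viability was measured by Cell Titer Glo luminescence in fresh medium, read 10 min after reagent addition.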

Row | Structure (SMILES) | EC50 (PC-3 cells) [µM] | IC50 (PDK1 kinase) [µM] | IC50 [1] [µM] | EC50 (A2780 cells) [µM]
1 | CC(C)N1CCC(c2c(O)ccc3cnc(Nc4ccc(S(N)(=O)=O)cc4)nc23)CC1 [Compound 134, 4-[7-Hydroxy-8-(1-isopropyl-piperidin-4-yl)-quinazolin-2-ylamino]-benzenesulfonamide] | < 5 | < 5 | < 5 | < 5
2 | O=S(=O)(NCCN1CCCC1)c1ccc(Nc2ncc3cccc(OC4CCNCC4)c3n2)cc1 [Compound 14, 4-[8-(Piperidin-4-yl-oxy)-quinazolin-2-ylamino]-N-(2-pyrrolidin-1-yl-ethyl)-benzenesulfonamide] | < 5 | < 5 | 5 to 10 | < 5
3 | CC(C)NS(=O)(=O)c1ccc(Nc2ncc3cccc(OC4CCNCC4)c3n2)cc1 [Compound 11, N-Isopropyl-4-[8-(piperidin-4-yloxy)-quinazolin-2-ylamino]-benzenesulfonamide] | < 5 | < 5 | < 5 | < 5
4 | CC(C)CN1CCC(Oc2cccc3cnc(Nc4ccc(S(N)(=O)=O)cc4)nc23)CC1 [Compound 45, 4-[8-(1-Isobutyl-piperidin-4-yloxy)-quinazolin-2-ylamino]-benzenesulfonamide] | < 5 | < 5 | < 5 | < 5
5 | NS(=O)(=O)c1ccc(Nc2ncc3cccc(O[C@@H]4CN5CCC4CC5)c3n2)cc1 [Compound 40, 4-[8-((S)-3-quinuclidinyloxy)-quinazolin-2-ylamino]-benzenesulfonamide] | < 5 | < 5 | < 5 | < 5
6 | NS(=O)(=O)c1ccc(Nc2ncc3cc(Br)cc(OC4CN5CCC4CC5)c3n2)cc1 (stereo not drawn) [Compound 2, 4-[8-(1-Aza-bicyclo[2.2.2]oct-3-yloxy)-6-bromo-quinazolin-2-yl-amino]-benzenesulfonamide] | < 5 | < 5 | < 5 | < 5
7 | NS(=O)(=O)c1ccc(Nc2ncc3cc(Br)cc(OC4CCNCC4)c3n2)cc1 [Compound 1, 4-[6-Bromo-8-(piperidin-4-yloxy)-quinazolin-2-ylamino]-benzenesulfonamide] | < 5 | < 5 | 5 to 10 | < 5
8 | COCCNS(=O)(=O)c1ccc(Nc2ncc3cccc(OC4CCNCC4)c3n2)cc1 [Compound 12, N-(2-Methoxy-ethyl)-4-[8-(piperidin-4-yloxy)-quinazolin-2-ylamino]-benzenesulfonamide] | < 5 | < 5 | < 5 | < 5
9 | O=S(=O)(c1ccc(Nc2ncc3cccc(OC4CCNCC4)c3n2)cc1)N1CCOCC1 [Compound 3, [4-(Morpholine-4-sulfonyl)-phenyl]-[8-(piperidin-4-yloxy)-quinazolin-2-yl]-amine] | < 5 | < 5 | < 5 | < 5
10 | NS(=O)(=O)c1ccc(Nc2ncc3ccc(OC4CCNCC4)cc3n2)cc1 [Compound 51, 4-[7-(Piperidin-4-yloxy)-quinazolin-2-ylamino]-benzenesulfonamide] | < 5 | < 5 | < 5 | < 5
11 | CC(C)N1CCC(Oc2cccc3cnc(Nc4ccc(S(N)(=O)=O)cc4)nc23)CC1 [Compound 36, 4-[8-(1-Isopropyl-piperidin-4-yloxy)-quinazolin-2-ylamino]-benzenesulfonamide] | < 5 | < 5 | < 5 | < 5
12 | CC(C)N1CCC(Oc2cccc3cnc(Nc4ccc(S(=O)(=O)N5CCOCC5)cc4)nc23)CC1 [Compound 4, [8-(1-Isopropyl-piperidin-4-yloxy)-quinazolin-2-yl]-[4-(morpholine-4-sulfonyl)-phenyl]-amine] | < 5 | < 5 | < 5 | < 5
13 | Cn1cc(-c2ccc3cnc(Nc4ccc(S(N)(=O)=O)cc4)nc3c2)cn1 [Compound 136, 4-[7-(1-Methyl-1H-pyrazol-4-yl)-quinazolin-2-ylamino]-benzenesulfonamide] | < 5 | < 5 | < 5 | < 5
14 | NS(=O)(=O)c1ccc(Nc2ncc3cccc(OC4CCNCC4)c3n2)cc1 [Compound 31, 4-[8-(Piperidin-4-yloxy)-quinazolin-2-ylamino]-benzenesulfonamide] | < 5 | < 5 | < 5 | < 5
15 | COc1cncc(-c2ccc3cnc(Nc4ccc(S(N)(=O)=O)cc4)nc3c2OC2CCNCC2)c1 [Compound 23, 4-[7-(5-Methoxy-pyridin-3-yl)-8-(piperidin-4-yloxy)-quinazolin-2-ylamino]-benzenesulfonamlde] | – | < 5 | 5 to 10 | < 5
16 | NS(=O)(=O)c1ccc(Nc2ncc3ccc(-c4ncco4)c(OC4CCNCC4)c3n2)cc1 [Compound 26, 4-[7-Oxazol-2-yl-8-(piperidin-4-yloxy)-quinazolin-2-ylamino]-benzenesulfonamide] | – | < 5 | 5 to 10 | < 5
17 | CC(C)NC(=O)c1ccc(Nc2ncc3cccc(OC4CCN(C(C)C)CC4)c3n2)cc1 [Compound 44, N-Isopropyl-4-[8-(1-isopropyl-piperidin-4-yloxy)-quinazolin-2-ylamino]-benzamide] | < 5 | < 5 | < 5 | < 5
18 | O=S(=O)(NC1CC1)c1ccc(Nc2ncc3cccc(OC4CCNCC4)c3n2)cc1 [Compound 13, N-Cyclopropyl-4-[8-(piperidin-4-yloxy)-quinazolin-2-ylamino]-benzenesulfonamide] | < 5 | < 5 | < 5 | < 5
19 | CN1CCC(Oc2cccc3cnc(Nc4ccc(S(N)(=O)=O)cc4)nc23)CC1 [Compound 35, 4-[8-(1-Methyl-piperidin-4-yloxy)-quinazolin-2-ylamino]-benzenesulfonamide] | – | < 5 | < 5 | < 5
20 | NS(=O)(=O)c1ccc(Nc2ncc3ccc(-c4cccnc4F)cc3n2)cc1 [Compound 137, 4-[7-(2-Fluoro-pyridin-3-yl)-quinazolin-2-ylamino]-benzenesulfonamide] | < 5 | < 5 | < 5 | < 5
21 | CC(C)N1CCC(Oc2ccc3cnc(Nc4ccc(S(N)(=O)=O)cc4)nc3c2)CC1 [Compound 42, 4-[7-(l-Isopropyl-piperidin-4-yloxy)-quinazolin-2-ylamino]-benzenesulfonamide] | < 5 | < 5 | < 5 | < 5
22 | NS(=O)(=O)c1ccc(Nc2ncc3ccc(-c4nccs4)c(OC4CCNCC4)c3n2)cc1 [Compound 27, 4-[8-(Piperidin-4-yloxy)-7-thiazol-2-yl-quinazolin-2-ylamino]-benzenesulfonamide] | – | < 5 | < 5 | < 5
23 | NS(=O)(=O)c1ccc(Nc2ncc3ccc(-c4cccnc4)c(OC4CCNCC4)c3n2)cc1 [Compound 18, 4-[8-(Piperidin-4-yl-oxy)-7-pyridin-3-yl-quinazolin-2-ylamino]-benzenesulfonamide] | – | < 5 | 5 to 10 | < 5
